Measured values reported in patent US10100056B2, “SHIP1 modulators and methods related thereto” (Aquinox Pharmaceuticals (Canada) Inc., priority 2013, dated 2018).

Tests used:
[1] = system: Akt phosphorylation in Molt-4 (PTEN-/SHIP1+) cells; experiment: Akt phosphorylation in lymphocytes (Western blot, IGF-1 stimulated); format: cell-based; design: key: +: inhibits Akt phosphorylation at 30 μM; −: no effect on Akt phosphorylation at 30 μM; conditions: 30 μM; Molt-4 (SHIP1+) cells, IGF-1 100 ng/mL
Method: Molt-4 (PTEN-/SHIP1+) cells are starved in serum free RPMI for overnight. In a 15 mL conical tube, 2-3 million serum starved cells (1 million cells per mL) are treated with various concentrations of test compound ([…]) for 30 min at 37° C. followed by stimulation with 100 ng/mL of IGF-1 for 1 hour at 37° C. After stimulation, cells are washed once with ice-cold DPBS and lysed with Lysis Buffer (20 mM Tris-HCl, pH 7.5, 140 mM NaCl, 1% NP-40, Complete Mini Protease Inhibitor Cocktail, 10 mM NaF, 1 mM Na3VO4, 1 mM β-glycerolphosphate) on ice for 30 min with vortexing every 10 min. Samples are then centrifuged at 13,000 rpm for 20 min, and supernatants are collected as total cell lysate samples. Protein concentration is determined using bicinchonic acid assay, and about 15 μg of total protein from each sample is loaded and separated on a 4-12% Tris-Glycine gel. After SDS-PAGE, proteins are transferred from the gel to a nitrocellulose membrane. The membrane is blocked in 5% BSA in PBS containing 0.1% Tween-20 (PBS-T) for 1 hour at room temperature before probing with primary antibodies for overnight at 4° C. The following antibodies are used: mouse anti-SHIP1 (1:500 dilution; Santa Cruz, Calif., USA), rabbit anti-phospho-Akt (Ser473) (1:1000 dilution; Cell Signaling Technologies, MA, USA), rabbit anti-Akt (1:1000; Cell Signaling Technologies, MA, USA), and rabbit anti-actin (1:2000; Cell Signaling Technologies, MA, USA). The membrane is then incubated with goat anti-rabbit or anti-mouse secondary antibodies (1:3000) for 1 hour at room temperature. Target proteins on the membrane are detected with ECL solution and exposed on a film.

His-hSHIP1 enzyme = target: T1, His-hSHIP1 enzyme (Homo sapiens, UniProt Q92835); experiment: His-hSHIP1 activity (phosphatase assay, IP4 substrate, Biomol Green); format: biochemical; design: key to Scoring, Approach 2 (Initial velocity Ratio): +++: higher than reference or reference - 15%; ++: reference - 16% to reference - 30%; +: reference - 31% or lower; −: inhibitor; conditions: second approach: ratio of initial velocities IP4 25/250 μM compared with reference compound; values without asterisk
T1 construct: His
T1 sequence (Q92835 1-1189): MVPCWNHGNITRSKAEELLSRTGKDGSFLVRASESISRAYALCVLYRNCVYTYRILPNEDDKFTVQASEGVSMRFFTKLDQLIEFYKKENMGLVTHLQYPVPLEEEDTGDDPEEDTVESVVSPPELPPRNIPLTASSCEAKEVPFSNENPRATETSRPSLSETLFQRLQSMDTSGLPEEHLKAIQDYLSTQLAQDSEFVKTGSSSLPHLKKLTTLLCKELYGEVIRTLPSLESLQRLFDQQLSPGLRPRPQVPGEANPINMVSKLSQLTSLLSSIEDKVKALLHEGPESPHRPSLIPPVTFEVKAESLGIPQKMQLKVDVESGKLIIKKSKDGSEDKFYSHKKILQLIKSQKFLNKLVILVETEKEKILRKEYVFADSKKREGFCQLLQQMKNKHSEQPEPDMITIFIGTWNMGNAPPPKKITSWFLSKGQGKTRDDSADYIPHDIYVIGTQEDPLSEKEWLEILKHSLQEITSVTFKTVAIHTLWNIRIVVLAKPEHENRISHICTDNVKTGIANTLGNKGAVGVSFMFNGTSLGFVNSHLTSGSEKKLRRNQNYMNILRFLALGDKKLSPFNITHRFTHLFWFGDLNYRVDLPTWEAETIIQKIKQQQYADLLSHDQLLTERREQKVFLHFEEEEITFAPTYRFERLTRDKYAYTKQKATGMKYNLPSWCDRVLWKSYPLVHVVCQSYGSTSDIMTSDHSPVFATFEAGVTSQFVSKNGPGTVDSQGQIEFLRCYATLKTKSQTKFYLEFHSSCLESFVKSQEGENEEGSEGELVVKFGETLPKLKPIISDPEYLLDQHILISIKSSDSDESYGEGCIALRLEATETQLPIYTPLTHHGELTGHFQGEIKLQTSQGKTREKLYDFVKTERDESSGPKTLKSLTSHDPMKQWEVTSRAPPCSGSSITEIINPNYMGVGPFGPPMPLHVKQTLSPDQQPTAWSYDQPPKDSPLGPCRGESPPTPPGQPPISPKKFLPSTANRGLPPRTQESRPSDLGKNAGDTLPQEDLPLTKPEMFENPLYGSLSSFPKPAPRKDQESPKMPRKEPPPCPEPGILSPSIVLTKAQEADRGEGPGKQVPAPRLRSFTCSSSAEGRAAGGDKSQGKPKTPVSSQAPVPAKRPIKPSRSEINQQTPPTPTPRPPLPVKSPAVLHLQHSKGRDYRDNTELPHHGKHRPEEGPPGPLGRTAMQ
Method: Test compounds are dissolved in 95% ethanol to form stock solutions. Before screening, the stock solutions are diluted with Phosphatase Assay Buffer (20 mM Tris-HCL, 10 mM MgCl2 pH 7.5, 0.02% Tween 20) to form working assay solutions that contain 10% ethanol. The assay is carried out on 96-well microtiter plates using a modified procedure of that reported by Ong et al., Blood 110, 1942-1949, 2007 and Yang et al., Org Lett 7, 1073-1076, 2005, both of which references are incorporated herein by reference in their entirety.
Data were generated by one of two variant methods. Test compounds are screened by one of two approaches described as follows. In the first approach, each reaction contains 5 μL of His-hSHIP1 enzyme (5-20 ng), 10 μL of the substrate, 1,3,4,5-inositol tetrakisphosphate (IP4; 50 μM final), 5 μL of Phosphatase Assay Buffer, and 5 µL of test compound at various concentrations in 10% ethanol (0-300 μM final). Control blanks are also prepared by replacing His-hSHIP1 enzyme, IP4, or test compounds with Phosphatase Assay Buffer. After adding the reaction components in a 96-well microtiter plate on ice, the reaction is mixed by briefly shaking the plate vigorously. The reaction is then incubated at 37° C. for 15 min with gentle shaking followed by addition of 100 μL of Biomol Green Reagent (BIOMOL, PA, USA) to terminate the reaction. The free phosphate released from IP4 by His-hSHIP1 binds to the Biomol Green Reagent, which turns the dye to green color. After incubating the mixture for 20 min at room temperature for color development, the absorbance is read with SpectraMax Plus 96-well plate reader (Molecular Devices, Sunnyvale, Calif., USA) at a wavelength of 650 nm.
In the second approach, a master mix is prepared that contains 50 μL of His-hSHIP1 enzyme (0.4-1.6 ng/μL final), 25 μL of the substrate, IP4 (25 or 250 μM final), and 50 μL of test compound in 3.3% ethanol (100 μL final). Control blanks are also prepared by replacing His-hSHIP1 enzyme, IP4, or test compounds with Phosphate Assay Buffer. […] Each reaction component is preincubated at 37° C. for 30 min before adding to a 96-well microtiter plate. The master mix is then incubated at 37° C. At time 0, 20, and 30 min, 25 μL of the master mix is removed and transferred to a new 96-well microtiter plate, to which 100 μL of Biomol Green Reagent is added to stop the reaction. After incubating the mixture for 20 min at room temperature for color development, the absorbance is read with SpectraMax Plus 96-well plate reader at a wavelength of 650 nm. Phosphate released is plotted against time to calculate the initial velocities (i.e., slope of the graph) at each IP4 concentration. The initial velocities are baseline corrected and the ratio of initial velocities (IP425/IP4250) is calculated and used to rate the test compounds.

Row | Structure (SMILES) | Molt-4 (SHIP+): inhibition of Akt phosphorylation [1] | Scoring, Approach 2 (Initial velocity Ratio) (His-hSHIP1 enzyme)
1 | CC1(C)CCC2=C1CC[C@H]([C@@]1(C)CC[C@H](O)C[C@@H]1CO)[C@H]2CNC(=N)N.Cl [Cpd. No. 1, 1-(((4R,5S)-5-((1R,2S,4S)-4-hydroxy-2-(hydroxymethyl)-1-methylcyclohexyl)-1,1-dimethyl-2,3,4,5,6,7-hexahydro-1H-inden-4-yl)methyl)guanidine hydrochloride] | + | ++
2 | C=C1CC[C@H]2[C@H](CNCc3ccc(OC)cc3)[C@@H]([C@@]3(C)CC[C@H](O)C[C@@H]3CO)CC[C@]12C [Cpd. No. 18, (1S,3S,4R)-3-(hydroxymethyl)-4-((3aS,4R,5S,7aS)-4-((4-methoxybenzylamino)methyl)-7a-methyl-1-methyleneoctahydro-1H-inden-5-yl)-4-methylcyclohexanol] | + | +
3 | C=C1CC[C@H]2[C@H](Cn3cncn3)[C@@H]([C@@]3(C)CC[C@H](O)C[C@@H]3CO)CC[C@]12C [Cpd. No. 27, (1S,3S,4R)-4-((3aS,4R,5S,7aS)-4-((1H-1,2,4-triazol-1-yl)methyl)-7a-methyl-1-methyleneoctahydro-1H-inden-5-yl)-3-(hydroxymethyl)-4-methylcyclohexanol] | − | +
4 | C=C1CC[C@H]2[C@H](O)[C@@H]([C@@]3(C)CC[C@H](O)C[C@@H]3CCN3CCOCC3)CC[C@]12C [Cpd. No. 46, (3aR,4R,5R,7aS)-5-((1S,2S,4S)-4-hydroxy-1-methyl-2-(2-morpholinoethyl)cyclohexyl)-7a-methyl-1-methyleneoctahydro-1H-inden-4-ol] | + | ++
5 | C=C1CC[C@H]2[C@H](CCNC(=O)c3ccc4c(c3)OCO4)[C@@H]([C@@]3(C)CC[C@H](O)C[C@@H]3O)CC[C@]12C [Cpd. No. 93, N-(2-((3aS,4S,5S,7aS)-5-((1R,2S,4S)-2,4-dihydroxy-1-methylcyclohexyl)-7a-methyl-1-methyleneoctahydro-1H-inden-4-yl)ethyl)benzo[d][1,3]dioxole-5-carboxamide] |  | ++
